Assay results from patent US20150105252A1, “SUBSTITUTED PYRAZOLES AS HERBICIDES” (E I DU PONT DE NEMOURS AND COMPANY, priority 2013, published 2015).

Test system: kochia
Test: Test A postemergence
Type: in vivo, Kochia scoparia
Method in brief: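 After sowing in a sand–loam mix, pots received compound preemergence by directed soil spray, or postemergence once plants reached the one- to two-leaf stage (2–10 cm). Formulation contained surfactant in a non-phytotoxic solvent. Injury was scored visually after ~10 greenhouse days, 0–100 scale.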

[1] = Postemergence, 500 g ai/ha, 0 to 100 scale (0 no effect, 100 complete control)
[2] = postemergence, 125 g ai/ha, about 10 days, visual rating on 0 to 100 scale (0 no effect, 100 complete control)

SMILES | Kochia plant response rating [1] | Kochia plant response rating [2] | Kochia plant response rating (Postemergence, 125 g ai/ha, 0 to 100 scale, 0 no effect, 100 complete control)
CCONC(=O)c1cc(CC)n(Cc2cc(C(F)(F)F)no2)n1 [Compound 125] | 90 | 60 | 
CCOc1cc(C(=O)NC2CC2)nn1Cc1ccnc(OC(F)F)c1 [Compound 133] | 100 | 90 | 
CCc1cc(C(=O)NCC(F)(F)F)nn1Cc1cc(OC(F)F)nn1C [Compound 206] | 90 |  | 80
